Results published in patent publication US6175001A, “Functionalized pyrimidine nucleosides and nucleotides and DNA's incorporating same” (The Scripps Research Institute, priority 1998, dated 2001).

Experiments:
[1] = system: thermostable DNA polymerases (Taq, Vent, Pfu, rTh); experiment: PCR assays with modified dUTP in place of dTTP, panel of thermostable DNA polymerases; assay type: biochemical; conditions: for substrate for thermostable DNA polymerases in PCR: typical PCR conditions, analog in place of dTTP, all polymerases tested (Taq, Vent, Pfu, rTh), 519 base pair product; for incorporation of modified base in PCR under varied conditions: variation of Mg+2 (15 to 30 mM) and analog concentrations
Source text: (§1) Commercially available thermostable DNA polymerases from […] organisms were studied; Taq from Thermus aquaticus, Vent from Thermococcus litoralis, Pfu from Pyrococcus furiosus, and rTh from Thermus thermophilus. […] Homogeneous incorporation of these derivatives in PCR is not possible due to chain termination, see 11c for discussion of derivatives in PCR: a) M. Shimkus, J. Levy, T. Herman, Proc. Natl. Acad. Sci. U.S.A. 1985, 82, 2593-7; b) B. L. Iverson, P. B. Dervan, J Am. Chem. Soc. 1987, 109, 1241-3. and ref. 10; c) H. Yu, J. Chao, D. Patek, R. Mujumdar, A. S. Waggoner, Nucleic Acids Res. 1994, 22, 3226-32. Successful PCR with this template requires incorporation of 246 modified bases including a single stretch of 8 contiguous thymidines.
(§2) Compound 3 was derivatized with three different N-hydroxysuccinimide esters to prepare Compounds 4a-c (Scheme 2 FIG. 3). […] To test this structure-activity relationship, 4e-4g maintaining the a,b-unsaturated linker arm common to 4a, were also prepared (Scheme 2, FIG. 3). […] Compound 4g, with a free amino group, was used as a template for the synthesis of Compounds 4h and 4i.

rTh polymerase = molecular target: T1, rTh polymerase (Thermus thermophilus, UniProt P52028); experiment: PCR assay with modified dUTP in place of dTTP, rTh polymerase; assay type: biochemical; conditions: analog in place of dTTP, 519 base pair product
T1 construct: purchased
T1 sequence (P52028 whole entry): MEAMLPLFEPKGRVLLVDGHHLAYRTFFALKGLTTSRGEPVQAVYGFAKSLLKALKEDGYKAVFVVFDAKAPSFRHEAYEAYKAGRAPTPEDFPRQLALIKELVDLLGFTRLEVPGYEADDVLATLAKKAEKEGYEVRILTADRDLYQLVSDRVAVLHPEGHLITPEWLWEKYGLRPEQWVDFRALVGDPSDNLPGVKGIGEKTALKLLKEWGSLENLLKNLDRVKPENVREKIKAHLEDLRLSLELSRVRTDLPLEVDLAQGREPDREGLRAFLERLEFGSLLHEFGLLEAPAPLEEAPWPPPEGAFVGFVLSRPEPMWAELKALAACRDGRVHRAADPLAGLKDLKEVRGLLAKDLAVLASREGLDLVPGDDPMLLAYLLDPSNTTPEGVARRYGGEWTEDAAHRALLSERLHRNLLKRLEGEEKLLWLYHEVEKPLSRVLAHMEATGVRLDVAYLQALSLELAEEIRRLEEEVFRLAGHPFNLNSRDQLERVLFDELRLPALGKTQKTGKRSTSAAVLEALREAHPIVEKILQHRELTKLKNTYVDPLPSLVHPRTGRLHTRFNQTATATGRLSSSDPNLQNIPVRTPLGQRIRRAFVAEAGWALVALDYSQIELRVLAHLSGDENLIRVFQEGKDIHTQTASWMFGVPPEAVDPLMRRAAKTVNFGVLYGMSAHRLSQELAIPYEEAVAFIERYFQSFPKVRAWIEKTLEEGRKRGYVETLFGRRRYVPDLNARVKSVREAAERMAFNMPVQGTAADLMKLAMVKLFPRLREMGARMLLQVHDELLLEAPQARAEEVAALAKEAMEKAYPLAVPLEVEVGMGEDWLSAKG
Source text: as §1, §2

[2] = molecular target: T2, Superscript II reverse transcriptase (Moloney murine leukemia virus, UniProt P03355, D1183G/D1242N/E1221Q); experiment: Reverse transcriptase template-directed extension assay; assay type: biochemical; conditions: 0.4 mM analog; 0.2 mM dATP, dCTP, dGTP; 37 C
T2 construct: Superscript II reverse transcriptase; purchased Gibco/BRL
Method: Reverse transcriptases may also be utilized in conjunction with PCR in in vitro selection schemes of DNA enzymes. […] The specificity of this reverse transcriptase is broader and not predictive of the structural requirements of the thermostable polymerases.
Reverse transcriptase assays: Template-directed extension was performed by addition of 10 pmol template DNA 5'-GCTAAAAAAGCTGCTAAAAAGCTGCTAAAAGCTGCTAAAGCTAAGCTAGCTCCCTTTAGTGAGGGTTAATTGC-3' (SEQ ID NO. 1) to 10 pmol primer DNA 5'-GCAATTAACCCTCACTAAAGGG-3' (SEQ ID NO 2) followed by Superscript II reverse transcriptase (Gibco, 200 units.(1^-1). The reaction (25 (I) contained 0.2 mM of dATP, dCTP, dGTP and 0.4 mM analog. Trace quantities of ((-^32 P(-dATP was included to allow the extension efficiency to be monitored. All components except reverse transcriptase were combined, incubated at 90° C. and cooled to 37° C. to anneal the primer. The enzyme (600 units) was added and the reaction mixture was incubated at 37 (C. The DNA was precipitated in ethanol and then dissolved in gel-loading buffer containing urea and heated for 3 min at 90° C. After separation on a 10% denaturing acrylarnide gel, the samples were further analyzed with a Phosphorimager.

[3] = system: thermostable DNA polymerase; conditions: Latham et al., Nucleic Acids Res. 1994; cited from earlier work

Which results are given for `NCC=Cc1cn([C@H]2C[C@H](O)[C@@H](COP(=O)(O)OP(=O)(O)OP(=O)(O)O)O2)c(=O)[nH]c1=O` [Compound 3, C-5(3-aminopropenyl)-2'-deoxvuridinetriphosphate]?
criteria for in vitro selection: substrate for thermostable polymerases and product serves as template for multiple cycles of PCR amplification [1]: criteria were met; substrate for thermostable DNA polymerases in PCR [1]: acted as a substrate; incorporation / substrate in PCR with rTh polymerase (only polymerase of the panel that accepts it) (rTh polymerase): incorporation into the 519 base pair product only with rTh polymerase

With `O=C(O)c1ccc(C(=O)NC/C=C/c2cn([C@H]3C[C@H](O)[C@@H](COP(=O)(O)OP(=O)(O)OP(=O)(O)O)O3)c(=O)[nH]c2=O)cc1` [Compound 4b] as the molecule, how does the “incorporation of modified base in PCR under varied conditions” value [1] read?
Its value is “failed to define conditions that allowed for incorporation”.

Which results are given for `O=C(O)CCCC(=O)NCc1cccc(/C=C/C(=O)NC/C=C/c2cn([C@H]3C[C@H](O)[C@@H](COP(=O)(O)OP(=O)(O)OP(=O)(O)O)O3)c(=O)[nH]c2=O)c1` [Compound 4h]?
substrate for thermostable DNA polymerases in PCR [1]: good substrate for all thermostable polymerases tested; substrate of Superscript II reverse transcriptase in template directed synthesis [2]: all but 4c and 4h were substrates

For `NCc1cccc(/C=C/C(=O)NC/C=C/c2cn([C@H]3C[C@H](O)[C@@H](COP(=O)(O)OP(=O)(O)OP(=O)(O)O)O3)c(=O)[nH]c2=O)c1` [Compound 4g], which “substrate for thermostable DNA polymerases in PCR” value [1] is on record?
The value was “robust substrate for PCR as compared to 3”.

For `O=C(O)c1ccccc1-c1ccccc1C(=O)NCC=Cc1cn([C@H]2C[C@H](O)[C@@H](COP(=O)(O)OP(=O)(O)OP(=O)(O)O)O2)c(=O)[nH]c1=O` [Compound 4c], which “incorporation of modified base in PCR under varied conditions” value [1] is on record?
Its value is “failed to define conditions that allowed for incorporation”.

And the “substrate of Superscript II reverse transcriptase in template directed synthesis” value [2]?
Its value is “all but 4c and 4h were substrates”.

With `O=C(CCc1c[nH]cn1)NC/C=C/c1cn([C@H]2C[C@H](O)[C@@H](COP(=O)(O)OP(=O)(O)OP(=O)(O)O)O2)c(=O)[nH]c1=O` [Compound 4d] as the molecule, how does the “substrate for thermostable DNA polymerases in PCR” value [1] read?
Its value is “No conditions could be defined with any of the polymerases that allowed for PCR”.

Which results are given for `O=C(/C=C/c1c[nH]cn1)NCC=Cc1cn([C@H]2C[C@H](O)[C@@H](COP(=O)(O)OP(=O)(O)OP(=O)(O)O)O2)c(=O)[nH]c1=O` [Compound 4a]?
criteria for in vitro selection: substrate for thermostable polymerases and product serves as template for multiple cycles of PCR amplification [1]: criteria were met; substrate for thermostable DNA polymerases in PCR [1]: excellent substrate for all the polymerases tested

Which “substrate for a thermostable DNA polymerase” value [3] does the source give for `CCCC#Cc1cn([C@H]2C[C@H](O)[C@@H](COP(=O)(O)OP(=O)(O)OP(=O)(O)O)O2)c(=O)[nH]c1=O` [5-(1-pentynyl)-2' deoxyuridine triphosphate] here?
The value was “good substrate”.

With `CC(=O)N[C@@H](Cc1c[nH]cn1)C(=O)NCc1cccc(/C=C/C(=O)NC/C=C/c2cn([C@H]3C[C@H](O)[C@@H](COP(=O)(O)OP(=O)(O)OP(=O)(O)O)O3)c(=O)[nH]c2=O)c1` [Compound 4i] as the molecule, how does the “incorporation / substrate in PCR with rTh polymerase (only polymerase of the panel that accepts it)” value (rTh polymerase) read?
Its value is “substrate only for rTh polymerase”.
